# Data from patent US10226508B2, “Treatment of chronic ulcers” (Promore Pharma AB, priority 2013, dated 2019).
# Entries after “also recorded” stand apart in the source; their conditions may differ. Like-named read-outs stand apart in the source and are kept apart here.
# Assays:
# [1] = test system: HTH VLUs (hard-to-heal venous leg ulcers); assay: Double-blind, randomised, placebo-controlled Phase I/II safety and pilot-dose response study of LL-37 in HTH VLUs; type: in vivo, human; conditions: for Estimated healing rate constant (cm^2/day) Mean (95% C.I.): 25 μL/cm^2 topical every third day, 4 weeks, exponential decay model, placebo 0.007
# Protocol: A double-blind, randomised, placebo-controlled, Phase I/II safety and pilot-dose response study was conducted on human subjects. The first subject was enrolled in August 2012 and the last subject completed in April 2013.
# Study subjects comprised either male subjects of at least 18 years of age, or post-menopausal or clinically sterile women, with VLUs or combined venous-arterial ulcers with a predominant venous component.
# Target wounds with an area greater than 30 cm^2 and less than 2 cm^2 were excluded initially. However, in order to increase the inclusion rate and decrease the total study time, criteria were amended after randomisation of 21 subjects, to exclude areas greater than 40 cm^2 and less than 1 cm^2. If an eligible subject had more than one wound satisfying the entry criteria, the investigator identified the wound with the most appropriate size, shape and localisation as target wound. Only one wound per subject was treated in the study.
# During the 3-week run-in period, subjects received, every third day (±1) and not more than two times per week, six applications (in total) of a placebo preparation (see below) in combination with standard compression bandaging (as defined by the Swedish MPA), comprising elastic bandaging and appropriate dressing to control wound exudation.
# If the ulcerative area decrease was greater than between 7% and 13% (depending on size) per week relative to the start of the run-in period, the ulcer was not defined as HTH for the purposes of this study. In such cases, subjects were excluded from the study and the outcome was recorded as screening failure.
# After a run-in period, 34 eligible subjects underwent baseline assessments before randomisation to receive active treatment (one of three treatment strengths) or placebo.
# Following the above run-in period, a 4-week treatment period was initiated, including 8 visits, an end-of-treatment visit 3 days (±1 day) after the last treatment, and a follow-up visit after an additional 4 weeks (±1 to 7 days).
# Subjects were randomised into four treatment groups to receive LL-37 (one of three alternative strengths), or placebo.
# Wound bed preparation prior to treatment included debridement of non-viable tissue, treatment of clinical infection and selection of the most appropriate dressing (see below). The wound was cleaned using tap water, gently dried with a gauze pad and, if necessary, curettage was applied prior to application of the trial product or placebo.
# 0.7 mL of a sterile concentrate of LL-37 in water at concentrations of 2.5, 8 or 16 mg of LL-37 per mL was provided in sealed glass vials (APL, Umeå, Sweden), which were stored prior to the trial at between 2 and 8° C. Immediately before application to the wound, this was diluted with […] of a viscous diluent solution comprising 13.1% (w/w) of polyvinyl alcohol in acetate buffered saline (APL AB) to give final concentrations of either 0.5, 1.6 or 3.2 mg/mL, respectively. Placebo comprised exactly the same solution, but without LL-37 present.
# The diluted viscous liquid solution of active treatment or placebo was applied topically at an amount of 25 μL/cm^2 with a 1 mL graded syringe at the centre of the cleansed and dried ulcer, and distributed evenly over the entire ulcer area using the rounded head of the syringe plunger that had been used in mixing the study drug.
# After a 5-minute wait (to prevent LL-37 or placebo from being absorbed by the dressing material), the above procedure was followed by application of a dressing and a compression bandage.
# The above procedure was repeated every third day (±1) over a 4 week treatment period, not more than two times per week, representing a total of eight applications.
# The study assessed the rate of wound healing, pain at wound site both at the time of dressing and over the previous 24 hours using Visual Analogue Scale (VAS). […]
# angiogenesis = conditions: synthetic LL-37, subcutaneous injection; Koczulla et al 2003; cited from earlier work
# acute wounds = conditions: synthetic LL-37, repeated topical administration in acute wounds; cited from earlier work
# wound healing = conditions: topical treatment; mice treated with a corticosteroid; Ramos et al 2011; cited from earlier work
# [2] = test system: acute wounds of diabetic mice; conditions: cited from earlier work
substance,measurement,setting,value
LL-37,wound healing response (conclusion),[1]; LL-37 0.5 mg/mL (13 μg per cm^2 of wound area) every third day,marked and significant improvement in wound healing
same,Estimated healing rate constant (cm^2/day) Mean (95% C.I.),[1]; LL-37 0.5 mg/mL,0.039 cm^2/day
same,broken stick analysis: reduction in wound area after randomisation versus run-in,"[1]; LL-37 0.5 mg/mL, p<0.001, FIG. 1",statistically significant improved healing
same,wound healing response (conclusion),[1]; LL-37 1.6 mg/mL (40 μg per cm^2 of wound area) every third day,marked and significant improvement in wound healing
same,Estimated healing rate constant (cm^2/day) Mean (95% C.I.),[1]; LL-37 1.6 mg/mL,0.019 cm^2/day
same,mean reduction in wound area,"[1]; LL-37 1.6 mg/mL, from randomization to the end of the study",5.29 cm^2
same,broken stick analysis: reduction in wound area after randomisation versus run-in,"[1]; LL-37 1.6 mg/mL, p=0.011, FIG. 1",statistically significant improved healing
same,clinical benefit in chronic ulcers,"[1]; LL-37 3.2 mg/mL, 80 μg/cm^2 every third day (26.7 μg/cm^2 for each day)",do not effectively treat chronic ulcers; also recorded: no clinical benefit
same,Estimated healing rate constant (cm^2/day) Mean (95% C.I.),[1]; LL-37 3.2 mg/mL,0.004 cm^2/day
same,"Wound Area (cm^2), Mean ± S.D","[1]; Visit 1 (Screening), before treatment, LL-37 0.5 mg/mL group (N = 8)",4.59 ± 2.024 cm^2
same,"Wound Area (cm^2), Mean ± S.D","[1]; Visit 1 (Screening), before treatment, LL-37 1.6 mg/mL group (N = 9)",7.84 ± 4.789 cm^2
same,"Wound Area (cm^2), Mean ± S.D","[1]; Visit 1 (Screening), before treatment, LL-37 3.2 mg/mL group (N = 8)",8.41 ± 6.450 cm^2
same,"Wound Area (cm^2), Mean ± S.D","[1]; Visit 3 (placebo run-in), LL-37 0.5 mg/mL group (N = 8)",4.39 ± 1.995 cm^2
same,"Wound Area (cm^2), Mean ± S.D","[1]; Visit 3 (placebo run-in), LL-37 1.6 mg/mL group (N = 9)",8.14 ± 4.997 cm^2
same,"Wound Area (cm^2), Mean ± S.D","[1]; Visit 3 (placebo run-in), LL-37 3.2 mg/mL group (N = 8)",7.83 ± 6.163 cm^2
same,"Wound Area (cm^2), Mean ± S.D","[1]; Visit 6 (Randomisation), baseline, LL-37 0.5 mg/mL group (N = 8)",5.11 ± 1.732 cm^2
same,"Wound Area (cm^2), Mean ± S.D","[1]; Visit 6 (Randomisation), baseline, LL-37 1.6 mg/mL group (N = 9)",7.69 ± 4.072 cm^2
same,"Wound Area (cm^2), Mean ± S.D","[1]; Visit 6 (Randomisation), baseline, LL-37 3.2 mg/mL group (N = 8)",8.50 ± 6.919 cm^2
same,"Wound Area (cm^2), Mean ± S.D","[1]; Visit 8, LL-37 0.5 mg/mL (N = 8)",3.89 ± 1.329 cm^2
same,"Wound Area (cm^2), Mean ± S.D","[1]; Visit 8, LL-37 1.6 mg/mL (N = 9)",5.83 ± 2.156 cm^2
same,"Wound Area (cm^2), Mean ± S.D","[1]; Visit 8, LL-37 3.2 mg/mL (N = 8)",7.95 ± 6.270 cm^2
same,"Wound Area (cm^2), Mean ± S.D","[1]; Visit 10, LL-37 0.5 mg/mL (N = 8)",3.18 ± 1.549 cm^2
same,"Wound Area (cm^2), Mean ± S.D","[1]; Visit 10, LL-37 1.6 mg/mL (N = 9)",5.34 ± 1.943 cm^2
same,"Wound Area (cm^2), Mean ± S.D","[1]; Visit 10, LL-37 3.2 mg/mL (N = 8)",7.03 ± 5.063 cm^2
same,"Wound Area (cm^2), Mean ± S.D","[1]; Visit 12, LL-37 0.5 mg/mL (N = 8)",2.26 ± 1.061 cm^2
same,"Wound Area (cm^2), Mean ± S.D","[1]; Visit 12, LL-37 1.6 mg/mL (N = 9)",4.59 ± 2.266 cm^2
same,"Wound Area (cm^2), Mean ± S.D","[1]; Visit 12, LL-37 3.2 mg/mL (N = 8)",5.93 ± 5.317 cm^2
same,"Wound Area (cm^2), Mean ± S.D","[1]; Visit 14, LL-37 0.5 mg/mL (N = 8)",1.93 ± 1.262 cm^2
same,"Wound Area (cm^2), Mean ± S.D","[1]; Visit 14, LL-37 1.6 mg/mL (N = 9)",3.86 ± 3.029 cm^2
same,"Wound Area (cm^2), Mean ± S.D","[1]; Visit 14, LL-37 3.2 mg/mL (N = 8)",5.89 ± 4.784 cm^2
same,"Wound Area (cm^2), Mean ± S.D","[1]; Visit 15 (End of Treatment), LL-37 0.5 mg/mL (N = 8)",1.98 ± 1.276 cm^2
same,"Wound Area (cm^2), Mean ± S.D","[1]; Visit 15 (End of Treatment), LL-37 1.6 mg/mL (N = 9)",3.34 ± 3.166 cm^2
same,"Wound Area (cm^2), Mean ± S.D","[1]; Visit 15 (End of Treatment), LL-37 3.2 mg/mL (N = 8)",5.85 ± 4.648 cm^2
same,"Wound Area (cm^2), Mean ± S.D","[1]; Visit 16 (End of Study, follow-up approx. 4 weeks after last treatment), LL-37 0.5 mg/mL (N = 8)",1.33 ± 1.209 cm^2
same,"Wound Area (cm^2), Mean ± S.D","[1]; Visit 16 (End of Study, follow-up approx. 4 weeks after last treatment), LL-37 1.6 mg/mL (N = 9)",2.40 ± 3.269 cm^2
same,"Wound Area (cm^2), Mean ± S.D","[1]; Visit 16 (End of Study, follow-up approx. 4 weeks after last treatment), LL-37 3.2 mg/mL (N = 8)",6.19 ± 4.770 cm^2
same,difference of estimated healing rate versus the placebo group,"[1]; highest dose, LL-37 3.2 mg/mL",no statistically significant difference
same,broken stick analysis: post-randomisation rate versus run-in,"[1]; highest dose, LL-37 3.2 mg/mL, FIG. 1",No significant difference
same,difference of healing rate constant (exponential decay model) versus the placebo group,"[1]; intermediate dose, LL-37 1.6 mg/mL, p=0.088",3 fold
same,difference of healing rate constant (exponential decay model) versus the placebo group,"[1]; lowest dose, LL-37 0.5 mg/mL, p=0.003",6 fold
same,effect on angiogenesis,angiogenesis,stimulates angiogenesis
same,effect on inflammatory cells,acute wounds,attracts inflammatory cells to the surrounding tissue
same,effect on wound healing,wound healing,stimulated wound healing
same,effect in acute wounds of diabetic mice,"[2]; one study, Carretero et al 2008",beneficial effect
same,effect in acute wounds of diabetic mice,"[2]; other studies, Steinstraesser et al 2012",failed to show an effect
